From patent US20080003438A1, “Heterocyclic siloxanes for use in biocidal coatings and materials” (Auburn University, priority 2002, published 2008)

How the values were obtained:
[1] = system: Escherichia coli (ATCC 2666); assay: Challenge of treated cotton swatches, modified AATCC Method 100; format: cell-based; conditions: contact time interval 60-120 minutes
Method: (§1) Treated cotton swatches were challenged with S. aureus (ATCC 6538) and Escherichia coli (ATCC 2666) at a concentration of between 10^8 and 10^9 CFU/mL in pH 7 phosphate buffer solution using a modified version of AATCC Method 100. The swatches were quenched with 0.02 N sodium thiosulfate solution at contact times of 10, 30, 60, and 120 min. Serial dilutions of the solutions contacting the swatches were plated on nutrient agar, incubated for 48 hours at 37° C., and plate counts were made to determine the presence of viable bacteria. […] The control sample (cotton soaked in 10% bleach, rinsed, and dried) gave only a 0.4 log reduction at 30 minutes. […] The control sample (cotton soaked in 10% bleach, rinsed, and dried) gave a 0 log reduction at 120 minutes.

S. aureus (ATCC 6538) = assay: as above; format: cell-based; conditions: coated chlorinated cotton swatches, contact time interval 10-30 minutes, pH 7 phosphate buffer
Method: as §1

[2] = Stability test during dry storage of coated cotton samples; format: physicochemical
Method: A stability test during dry storage was also conducted on cotton samples coated with 3-triethoxysilylpropyl-5,5-dimethylhydantoin. One half of the samples were coated in a bath containing 8% of the 3-triethoxysilylpropyl-5,5-dimethylhydantoin in 50% ethanol in water solution. The other half were treated in the same manner except that KSCN was added to the treatment bath as described above. The chlorination conditions and analytical method of measuring chlorine loadings were the same as discussed above. The samples were stored in plastic bags at ambient temperature; the bags were not air-tight. The average chlorine loading for the samples treated in the presence of KSCN declined from 0.776% to 0.680% over a period of 50 days. For the samples not treated in the presence of KSCN, the decline was from 0.620% to 0.540% over the same 50 day period. It can be concluded that the coated cotton samples were fairly stable to loss of chlorine in dry storage.

[3] = system: Proteus mirabilis bacteria; assay: Odor control: ammonia in head space above inoculated wood pulp pads; format: cell-based; conditions: coated, chlorinated wood pulp pads, 37° C., six hours
Method: 3-triethoxysilylpropyl-5,5-dimethylhydantoin, prepared as described in Example 1, was used to treat non-woven pads consisting of 1 gram of a wood pulp matrix such as is used in diapers and incontinence products. A 5% solution prepared in a distilled water and ethanol 1:1 mixture was applied to pads of the wood pulp fibers, and they were then left to soak for 5 minutes. Excess solution was vacuum suctioned from the pads, which were then dried in an oven at 90° C. for two hours. Untreated pads were also subjected to exposure to water and ethanol as controls, and were similarly dried.
Dried coated test samples and uncoated control pads were then treated by exposure to 10% sodium hypochlorite solution for 15 minutes, after which they were rinsed exhaustively with distilled water, and then vacuum dried to remove any unbound, free chlorine. Additional control pads consisted of wood pulp coated with 3-triethoxysilylpropyl-5,5-dimethylhydantoin but not exposed to the hypochlorite bleach charge. […]
All test and control pads were then exposed to an inoculum designed to generate ammonia odor as a result of bacterial action on urine, simulating events in an infant or adult human diaper. […] At the end of this period the samples were removed from the incubator, and the amount of ammonia gas in the head space above each pad was measured as an indicator of the degree of odor generated in the urine. […]

[4] = system: spores of Aspergillus niger (ATCC # 1004); assay: Antifungal activity of chlorinated coated surfaces; format: cell-based
Method: Soft and hard surfaces were treated by exposure to a solution of 3-triethoxysilylpropyl-5,5-dimethylhydantoin, prepared as described in Example 1. The soft surfaces used for detection of antifungal properties were woven textiles composed of fibers of polypropylene, cotton (cellulose), polyester, rayon, and slabs from a cellulose kitchen sponge. Hard surfaces prepared were polyvinylchloride (PVC) sheets, and porcelain and marble tiles. Challenge inocula of prepared surfaces consisted of aliquots of stock suspensions of spores of Aspergillus niger (ATCC # 1004), a black mold, harvested from cultured lawns on Potato Dextrose Agar (PDA) plates. Methods for preparation of the halogen charged surfaces and protocols for challenge were as described in Example 11. In this case recovery of Aspergillus was accomplished by the plate dilution method on PDA, and the results were expressed as log 10 reductions compared to the controls. Contact times varied from 24-72 hours, considerably longer than was allowed for other organisms because of the well established durability of black mold spores under a wide range of physical and chemical conditions.

[5] = system: Candida albicans (ATCC # 102301); assay: Anti-yeast activity of halogen charged coated surfaces; format: cell-based
Method: Soft and hard surfaces were treated by exposure to solutions of 3-triethoxysilylpropyl-5,5-dimethylhydantoin prepared as described in Example 1. Challenge inocula for determination of activity directed against yeasts consisted of suspensions of Candida albicans (ATCC # 102301) harvested from PDA plates. Procedures for preparation of halogen charged surfaces, plates, and the exposure of test articles were as described in Example 11. Recovery of viable Candida was accomplished by the plate dilution method on PDA.

With `CCO[Si](CCCN1C(=O)NC(C)(C)C1=O)(OCC)OCC` [3-triethoxysilylpropyl-5,5-dimethylhydantoin] the “log reduction of E. coli” value [1] was greater than 5.9 logs, the “log reduction of S. aureus” value (S. aureus (ATCC 6538)) was greater than 5.7 logs and the average chlorine loading ([2]; cotton not treated in presence of KSCN, after 50 days in plastic bags at ambient temperature) was 0.540%. The average chlorine loading ([2]; cotton not treated in presence of KSCN, start of dry storage) was 0.620%, the average chlorine loading ([2]; cotton treated in presence of KSCN, after 50 days in plastic bags at ambient temperature) was 0.680% and the average chlorine loading ([2]; cotton treated in presence of KSCN, start of dry storage) was 0.776%. For the same compound, the “odor detected by the human nose” value [3] was “no detectable odor whatsoever”, the “ammonia in the head space above the pads” value ([3]; urine + urea + P. mirabilis, lower limit of detection 0.25 ppm) was less than 0.25 ppm and the “log 10 reduction in mold concentration” value ([4]; cotton, contact 24 hours) was 8 logs. For the same compound, the “log 10 reduction in mold concentration” value ([4]; marble, 72 hours after spore inoculation) was 4 log, the “log 10 reduction in mold concentration” value ([4]; porcelain, 72 hours after spore inoculation) was 5 log and the “log 10 reduction in mold concentration” value ([4]; sponge slabs, contact 24 hours) was 4 log. For the same compound, the “log 10 reduction in mold concentration” value ([4]; synthetic fibers (polypropylene, polyester), 72 hours of contact) was 5 logs, the “log 10 reduction in mold concentration” value ([4]; vinyl, 72 hours after spore inoculation) was 4 log and the “reduction in viable yeasts” value ([5]; cotton surfaces, two hours of contact) was 5 logs. The “reduction in viable yeasts” value ([5]; hard surfaces, 6 hours of contact) was “up to 4 logs” and the “reduction in viable yeasts” value ([5]; polyester, 24 hours) was 4 logs.
